Reference: US9974766B2, “Prenylated isoflavones for treatment of subjects with multidrug-resistant cancer” (Macau University of Science and Technology, priority 2015, dated 2018)
pIC50: −log10 of the molar value. “Also recorded” adds a separate entry of the source.

Columns and labels:
[1] = target: P-glycoprotein (Homo sapiens, UniProt P08183); assay: Rho123 efflux assay in A549 taxol-resistant lung cancer cells; conditions: Example 8, 10 μM of each compound, 24 h, then Rho123 1 h
[2] = system: HCT-8 (Colon) (Taxol sensitive); assay: MTT cytotoxicity assay, HCT-8 Taxol sensitive; assay type: cell-based; conditions: Homo sapiens, HCT-8, 72 h, 3 days
Description: (§1) Cell cultures and cytotoxicity assays have been carried out. […] Subsequently, 10 μL of MTT reagents is added to each well and incubated at 37° C. for 4 hours followed by the addition of 100 μL solubilization buffer (10% SDS in 0.01 mol/L HCl) and overnight incubation. Absorbance at 585 nm is determined from each well the next day. The percentage of cell viability is calculated using the following formula: Cell viability (%)=Cells number treated/Cells number DMSO control×100. Data are obtained from three independent experiments. The resistant factor is calculated by dividing the IC50 in resistant cells by its IC50 against drug-sensitive cells.

[3] = system: A549 (Lung) (Taxol sensitive); assay: MTT cytotoxicity assay, A549 Taxol sensitive; assay type: cell-based; conditions: Homo sapiens, A549, 72 h, 3 days
Description: as §1

[4] = system: MCF-7 (Breast) (Taxol resistant); assay: MTT cytotoxicity assay, MCF-7 Taxol resistant; assay type: cell-based, human; conditions: for pIC50: Homo sapiens, MCF7, 72 h, MTT, 3 days; for Resistant Factor: IC50 in Taxol resistant MCF-7 divided by IC50 in Taxol sensitive MCF-7
Description: as §1

[5] = system: MCF-7 (Breast) (Taxol sensitive); assay: MTT cytotoxicity assay, MCF-7 Taxol sensitive; assay type: cell-based; conditions: Homo sapiens, MCF7, 72 h, 3 days
Description: as §1

[6] = system: HCT-8 (Colon) (Taxol resistant); assay: MTT cytotoxicity assay, HCT-8 Taxol resistant; assay type: cell-based, human; conditions: for pIC50: Homo sapiens, HCT-8, 72 h, MTT, 3 days; for Resistant Factor: IC50 in Taxol resistant HCT-8 divided by IC50 in Taxol sensitive HCT-8
Description: as §1

[7] = system: A549 (Lung) (Taxol resistant); assay: MTT cytotoxicity assay, A549 Taxol resistant; assay type: cell-based, human; conditions: for pIC50: Homo sapiens, A549, 72 h, MTT, 3 days; for Resistant Factor: IC50 in Taxol resistant A549 divided by IC50 in Taxol sensitive A549
Description: as §1

[8] = system: MCF-7 (Breast) (Dox sensitive); assay: MTT cytotoxicity assay, MCF-7 Dox sensitive; assay type: cell-based; conditions: Homo sapiens, MCF7, 72 h, 3 days
Description: as §1

[9] = system: MCF-7 (Breast) (Dox resistant); assay: MTT cytotoxicity assay, MCF-7 Dox resistant; assay type: cell-based, human; conditions: for Resistant Factor: IC50 in Dox resistant MCF-7 divided by IC50 in Dox sensitive MCF-7
Description: as §1

[10] = system: A549 taxol-resistant lung cancer cells; assay: Annexin V/propidium iodide flow cytometry of cell death, A549 taxol-resistant; assay type: cell-based, human; conditions: 1-10 μM pomiferin with 40 μM taxol, 24 h
Description: (§2) Cell death and viability are measured using an Annexin V staining kit (BD Biosciences, San Jose, Calif., USA). […] Cells were then harvested and analysed by multiparametric flow cytometry using FITC-Annexin V and propidium iodide staining (BD Biosciences, San Jose, Calif., USA) according to the manufacturer's instructions. Flow cytometry has been then carried out using a FACSCalibur flow cytometer (BD Biosciences, San Jose, Calif., USA). […] Data were obtained from three independent experiments.

[11] = system: P-glycoprotein; assay: Rho123 efflux assay in MCF-7 taxol/doxorubicin-sensitive breast cancer cells; conditions: MCF-7 drug-sensitive cells without P-glycoprotein expression; pomiferin 5-20 μM or verapamil 10 μM, 24 h, then Rho123 1 h
[12] = system: HCT-8 taxol-resistant colon cancer cells; assay: Annexin V/propidium iodide flow cytometry of cell death, HCT-8 taxol-resistant; assay type: cell-based, human; conditions: 1-10 μM pomiferin with 40 μM taxol, 24 h
Description: as §2

[13] = Homo sapiens, MCF7, 72 h, MTT, 3 days

P-glycoprotein (Homo sapiens, UniProt P08183), sequence (P08183 whole entry): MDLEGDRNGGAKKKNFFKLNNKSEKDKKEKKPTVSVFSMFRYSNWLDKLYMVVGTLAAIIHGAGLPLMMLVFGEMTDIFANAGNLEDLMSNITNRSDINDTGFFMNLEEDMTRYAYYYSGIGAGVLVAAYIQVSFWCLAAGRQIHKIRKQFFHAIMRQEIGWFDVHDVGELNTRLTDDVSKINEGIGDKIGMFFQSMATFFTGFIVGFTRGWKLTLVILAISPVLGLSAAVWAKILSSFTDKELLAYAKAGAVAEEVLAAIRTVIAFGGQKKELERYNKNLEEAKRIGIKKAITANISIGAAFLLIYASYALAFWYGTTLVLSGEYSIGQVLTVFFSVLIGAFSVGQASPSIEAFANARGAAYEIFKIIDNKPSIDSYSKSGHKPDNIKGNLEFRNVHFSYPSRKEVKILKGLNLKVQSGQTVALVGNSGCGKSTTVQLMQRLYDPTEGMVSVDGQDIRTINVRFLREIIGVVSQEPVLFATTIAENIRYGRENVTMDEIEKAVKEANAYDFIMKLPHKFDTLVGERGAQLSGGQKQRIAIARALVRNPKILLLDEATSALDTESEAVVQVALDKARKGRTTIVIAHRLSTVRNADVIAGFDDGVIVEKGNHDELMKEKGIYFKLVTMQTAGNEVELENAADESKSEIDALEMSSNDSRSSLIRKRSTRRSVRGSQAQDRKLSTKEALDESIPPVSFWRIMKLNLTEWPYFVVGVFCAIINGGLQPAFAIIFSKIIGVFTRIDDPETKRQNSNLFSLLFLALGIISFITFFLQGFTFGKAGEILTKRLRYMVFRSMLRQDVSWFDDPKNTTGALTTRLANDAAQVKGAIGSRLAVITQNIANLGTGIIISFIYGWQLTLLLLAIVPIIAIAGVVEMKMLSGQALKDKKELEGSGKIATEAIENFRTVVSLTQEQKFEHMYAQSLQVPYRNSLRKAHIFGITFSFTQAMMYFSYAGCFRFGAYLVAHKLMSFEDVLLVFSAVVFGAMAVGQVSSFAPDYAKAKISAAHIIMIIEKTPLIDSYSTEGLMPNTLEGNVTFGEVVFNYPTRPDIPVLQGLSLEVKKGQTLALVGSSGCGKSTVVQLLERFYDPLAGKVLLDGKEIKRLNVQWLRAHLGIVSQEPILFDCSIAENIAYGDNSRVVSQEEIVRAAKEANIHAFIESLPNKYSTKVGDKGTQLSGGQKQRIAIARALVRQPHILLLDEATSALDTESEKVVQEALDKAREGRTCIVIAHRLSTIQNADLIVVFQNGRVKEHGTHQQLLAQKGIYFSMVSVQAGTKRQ

## COc1ccc(-c2coc3c4c(c(CC=C(C)C)c(O)c3c2=O)OC(C)(C)C=C4)cc1 [osajin 4′-methyl ether]
[1]
  P-glycoprotein inhibition (Rho123 accumulation): showed P-glycoprotein inhibition with a different extent

## CC(=O)O[C@H]1C(=O)[C@@]2(C)[C@H]([C@H](OC(=O)c3ccccc3)[C@]3(O)C[C@H](OC(=O)[C@H](O)[C@@H](NC(=O)c4ccccc4)c4ccccc4)C(C)=C1C3(C)C)[C@]1(OC(C)=O)CO[C@@H]1C[C@@H]2O [Taxol, paclitaxel, reference compound]
[2]
  pIC50: > 9.00
[3]
  pIC50: 7.51
[4]
  pIC50: 5.30
  Resistant Factor: 5000×
[4]; listed as taxol
  Resistant Factor: over 5000 ×
[5]
  pIC50: > 9.00
[6]
  pIC50: 4.45
  Resistant Factor: >35300×
[6]; listed as taxol
  Resistant Factor: 35300 ×
[7]
  pIC50: 4.50
  Resistant Factor: 1012.945×
[7]; listed as taxol
  Resistant Factor: 1000 ×

## COc1ccc(C2COc3c4c(c(CC=C(C)C)c(OC)c3C2=O)OC(C)(C)C=C4)cc1OC (stereo not shown) [pomiferin trimethyl ether]
[1]
  P-glycoprotein inhibition (Rho123 accumulation): showed P-glycoprotein inhibition with a different extent

## CC1(C)C=Cc2c(c3c(c4c(=O)c(-c5ccc(O)cc5)coc24)OC(C)(C)CC3)O1 [isoosajin, 3,4-dihydro-11-(4-hydroxyphenyl)-2,2,6,6-tetramethyl-2H,6H,12H-benzo[1,2-b:3,4-b′:5,6-b″]tripyran-12-one]
[1]
  P-glycoprotein inhibition (Rho123 accumulation): showed P-glycoprotein inhibition with a different extent; also recorded: comparable effect compared to pomiferin

## COc1cccc2c1C(=O)c1c(O)c3c(c(O)c1C2=O)C[C@@](O)(C(=O)CO)C[C@@H]3O[C@H]1C[C@H](N)[C@H](O)[C@H](C)O1 [doxorubicin, reference compound]
[8]
  IC50: 0.463 µg/mL
[9]; [13]
  IC50: 10 µg/mL
[9]
  Resistant Factor: 21.6 ×

## CC(C)=CCc1c2c(c3occ(-c4ccc(O)c(O)c4)c(=O)c3c1O)C=CC(C)(C)O2 [pomiferin, 3-(3,4-dihydroxyphenyl)-5-hydroxy-8,8-dimethyl-6-(3-methylbut-2-enyl)pyrano[2,3-h] chromen-4-one]
[8]
  pIC50: 4.44
[10]
  effect on taxol-mediated cytotoxicity (cell death): significantly enhanced the taxol-mediated cytotoxicity
[2]
  pIC50: 4.59
[3]
  pIC50: 4.74
[4]
  pIC50: 4.57
  Resistant Factor: 0.76 ×
[4]; listed as Pomiferin
  Resistant Factor: 0.76×
[11]
  Rho123 fluorescence signal / accumulation in cells: no difference in fluorescence signal compared with Rho123 stained cells
[5]
  pIC50: 4.45
[9]; [13]
  pIC50: 4.82
[9]
  Resistant Factor: 0.42 ×
[6]
  pIC50: 4.75
  Resistant Factor: 0.69 ×
[6]; listed as Pomiferin
  Resistant Factor: 0.69×
[7]
  pIC50: 4.76
  Resistant Factor: 0.95 ×
[7]; listed as Pomiferin
  Resistant Factor: 0.95×
[12]
  effect on taxol-mediated cytotoxicity (cell death): enhanced taxol-mediated cytotoxicity

## CC1(C)C=Cc2c(c3c(c4c(=O)c(-c5ccc(O)c(O)c5)coc24)OC(C)(C)CC3)O1 [isopomiferin, 7,8-dihydro-3-(3,4-dihydroxyphenyl)-6,6,10,10-tetramethyl-4H,6H,10H-benzo[1,2-b:3,4-b′:5,6-b″]tripyran-4-one]
[1]
  P-glycoprotein inhibition (Rho123 accumulation): showed P-glycoprotein inhibition with a different extent; also recorded: comparable effect compared to pomiferin
